Data reported in patent publication EP0152574A1, “6-Ethoxy-4-methyl-benzothiazol-2(3H)-one, processes for its preparation and medicaments containing this compound” (priority 1983, dated 1985).

Columns and labels:
in vivo = conditions: rat, oral, 14 days observation, limits in brackets
Experimental: 3.) Die Bestimmung der akuten Toxizität erfolgte an Ratten beider Geschlechter mit einem Gewicht zwischen 120 und 150 g. Die Prüfsubstanzen wurden als Verreibung in l%iger Methylzellulose (2,0 ml/100 g Tier) per Schlundsonde appliziert. Die Berechnung der LD50 erfolgte nach […] u.

[1] = test system: Glutathiongehalt der Mäuseleber; experiment: Effect on liver glutathione content (ELLMAN method); type: in vivo, Maus
Experimental: 4.) Der Einfluß auf den Glutathion-Gehalt der Leber wurde an männlichen Mäusen mit einem Gewicht zwischen 25 und 30 g untersucht. 2 Stunden nach oraler Gabe der Prüfsubstanz (als Verreibung in l%iger Methylzellulose, 0,2 ml/10 g Tier) wurde die Leber entnommen.
Für die prognostische Beurteilung einer Hepatotoxizität ist die Erschöpfung der Glutathionvorräte in der Leber ein geeigneter Indikator.

Hefefieber der Ratte = experiment: Antipyretic action against yeast-induced fever; type: in vivo; set-up: unit not given here; conditions: rat, oral, 2 h after dosing; dose lowering yeast fever by 1°C; limits in brackets
Experimental: 2. Die Prüfung der antipyretischen Wirkung erfolgte gegen das durch subcutane Gabe von 100 mg Hefe/100 g Tier ausgelöste Fieber an 120-150 g schweren männlichen Ratten. Die Prüfsubstanzen wurden 4 Stunden nach Hefegabe als Verreibung in l%iger Methylzellulose (1,0 ml/100 g) per Schlundsonde verabfolgt. Aus der 2 Stunden danach gefundenen Veränderung der Rektaltemperatur gegenüber der der Kontrolltiere wurde nach linearer Regressionsanalyse eine ED-1,0°C als jene Dosis berechnet, die das Hefefieber um 1°C senkte.

[2] = test system: Entzündungsschmerz der Ratte; experiment: Inflammatory pain test according to RANDALL and SELITTO (yeast-inflamed paw, pain threshold); type: in vivo; conditions: 1.5 h; rat, oral, 90 min after dosing; dose raising pain threshold by 50 %; confidence limits in brackets
Experimental: l.) Die Prüfung der Wirkung gegen den Entzündungsschmerz der Ratte erfolgte mit der Methode nach RANDALL u. SELITTO (Arch. int. Pharmacodyn. 111, 409 (1957)). Die Prüfsubstanzen wurden männlichen Ratten mit einem Gewicht zwischen 100 und 130 g als Verreibung in 1%iger Methylzellulose (1,0 ml/100 g Tier) 90 Minuten nach der subplantaren Hefegabe per Schlundsonde verabfolgt. Aus der 90 Minuten nach Gabe der verschiedenen Dosen der Prüfsubstanz gemessenen Schmerzschwelle wurde nach linearer Regressionsanalyse eine ED50 als jene Dosis ermittelt, die eine Anhebung der Schmerzschwelle um 50 % bewirkt.

Structure (SMILES) | LD50 at 336 h (in vivo) [mg/kg] | Verminderung des Leberzellglutathion ([1]; in vivo, po, 1000 mg/kg) | red. GSH x̄ ([1]; in vivo, po, 1000 mg/kg) | Δ gegen Kontrollen ([1]; in vivo, po, 1000 mg/kg) | ED-1,0 °C (Hefefieber der Ratte) | ED50 [2] [mg/kg] | red. GSH x̄ ([1]; mouse liver, 2 h after oral 1000 mg/kg) | Verminderung des Leberzellglutathion ([1]; single oral dose 1000 mg/kg, mouse, critical range = depletion by more than 50 %) [%] | Δ gegen Kontrollen ([1]; in vivo, po, 160 mg/kg) | Δ gegen Kontrollen ([1]; in vivo, po, 200 mg/kg) | Δ gegen Kontrollen ([1]; in vivo, po, 250 mg/kg) | Δ gegen Kontrollen ([1]; in vivo, po, 315 mg/kg)
CCOc1cc(C)c2[nH]c(=O)sc2c1 [Substanz A, 6-Ethoxy-4-methyl-benzothiazol-2(3H)-on] | > 4000 | deutlich schwächer und unterhalb des kritischen Bereiches | 5,02 | - 36,0% | 31,2 (25,1-36,5) | 24.1 |  |  |  |  |  | 
COc1cc(C)c2[nH]c(=O)sc2c1 [Substanz B, 6-Methoxy-4-methyl-benzothiazol-2(3H)-on] | 7580 | > 50% | 3,42 | - 56,4% | 29,6 (25,0-34,0) | 23 |  |  |  |  |  | 
Cc1cc(C)c2[nH]c(=O)sc2c1 [Substanz C, 4,6-Dimethyl-benzothiazol-2(3H)-on] |  |  |  |  | 18,1 (11,3-23,7) | 49.7 | 2,90 mMol/g | > 50 |  |  |  | 
CC(=O)Nc1ccc(O)cc1 [Substanz D, p-Hydroxy-acetanilid] | 3960 |  |  |  | 123 (84,0-155) | 215 |  |  | - 32,7% | - 51,3% | - 65,7% | - 82,4%
